{"source": "patent EP3906926A1", "about": "“PROLINE HYDROXYLASE INHIBITORS FOR USE IN THE SKELETAL MUSCLE REGENERATION” (Policlinico San Donato S.p.A.- Istituto di Ricovero e Cura …, priority 2020, dated 2021)", "key": {"[1]": {"molecular_target": "PHDs", "test": "ODD-luciferase reporter assay (Dual-Glo) for PHDs inhibition", "details": "C2C12 myoblasts transfected with ODD-luciferase-pcDNA3; 24 hours at 50, 100, 250, 500, 1000 µM, normoxic conditions; linear regression"}, "[2]": {"test_system": "HIF-1α", "test": "Western blot of HIF-1α nuclear translocation", "type": "cell-based, murine", "details": "PLG at EC50 (250 µM) for 24 hours, vs untreated control; Lamin A/C housekeeper", "description": "(§1) For nuclei separation, 5 x 10^6 cells were collected after enzymatic digestion with trypsin (Merck), centrifuged at the maximum speed, resuspended in 400 µl of Buffer A (10 mM KCl, 0.1 mM EDTA, 1 mM DTT, 10 mM Hepes, pH 7.9), containing protease and phosphatase inhibitors cocktail (Merck), and incubated on ice for 20 minutes. Then, 10% NP40 was added to the cell suspension, mixed for 40 seconds, and centrifuged 40 seconds at the maximum speed. After centrifugation, the pellet was resuspended in 80 µl of Buffer C (0.4M NaCl, 1 mM EDTA, 1 mM DTT, 20 mM Hepes, pH 7.9), containing a protease and phosphatase inhibitors cocktail, and then mixed for 30 minutes at 4°C at the maximum speed. Finally, the nuclear suspension was centrifuged for 5 minutes at 4°C at the maximum speed, collected and transferred in a new tube. The total protein content was determined with the BCA Protein Assay Kit (Pierce), according to the manufacturer's instructions.\n(§2) Proteins were denaturated by boiling for 10 minutes in sample buffer (0.6 g/100 mL Tris, 2 g/100 mL SDS, 10% glycerol, 1% 2-mercaptoethanol, pH 6.8) and loaded into 10% SDS-PAGE gel, then transferred onto a nitrocellulose membrane (Trans-blot, Bio-Rad Laboratories) by electroblotting. Nitrocellulose membranes were incubated with a blocking solution containing 5% (w/v) non-fat dry milk or 5% (w/v) BSA (Merck) in Tris-buffer saline with 0.1% Tween® 20 (TBS-T) for 1 hour. […] Membranes were washed three times for 10 minutes with TBS-T, and then incubated with the appropriate anti-mouse, anti-rabbit, or anti-goat HRP-conjugated secondary antibodies (Dako, Agilent Technologies), 1:2000 dilution, for 1 hour at room temperature. After three washes for 10 minutes with TBS-T, the immunoreactive bands were visualized using the enhanced chemiluminescence detection kit reagents (ECL Advance, GeHealthcare), according to the manufacturer's instructions.\nas §1, with “For total proteins extraction, 7.5 x 10^4 cells were seeded and harvested at 7th days of skeletal muscle differentiation, as previously described. Cells were collected after enzymatic digestion with trypsin (Merck), lysed by sonication and centrifuged at 800 xg for 10 minutes. Supernatant was used to determine total protein content with the BCA Protein Assay Kit (Pierce), according to the manufacturer's instructions. For” for “For”, “(0.4 M” for “(0.4M”"}, "[3]": {"test_system": "VEGF", "test": "qPCR of HIF-1α target gene VEGF", "type": "cell-based, murine", "details": "PLG at EC50 (250 µM), 24 hours", "description": "(§3) Total RNA was isolated using ReliaPrep™ RNA Miniprep Systems (Promega), and reverse transcribed to cDNA using the iScript cDNA synthesis kit (BioRad), according to the Manufacturer's instructions. Real-Time Quantitative PCR was performed on 10 ng of cDNA template, 0.2 µM primers, and GoTaq® qPCR Master Mix (Promega) in 20 µl final volume using a StepOnePlus® Real-Time PCR System (Applied Biosystem). […] RPL13 was used as the housekeeping gene. The amplification program consisted in an initial denaturation at 95°C for 3 minutes, followed by 40 cycles of 5 seconds each at 95°C and 30 seconds at 57°C; WNT7a was amplified at 53°C. Relative quantification of target genes was performed in triplicate and calculated by the equation 2^-ΔΔCt.\nas §3, with “ReliaPrepTM” for “ReliaPrep™”, “2-ΔΔCt.” for “2^-ΔΔCt.”"}, "[4]": {"test_system": "PHD2", "test": "qPCR of HIF-1α target gene PHD2", "type": "cell-based, murine", "details": "PLG at EC50 (250 µM), 24 hours", "description": "as §3\nas §3, with “ReliaPrepTM” for “ReliaPrep™”, “2-ΔΔCt.” for “2^-ΔΔCt.”"}, "[5]": {"test_system": "murine myoblasts C2C12", "test": "Skeletal muscle differentiation, MHC immunofluorescence (fusion and differentiation indexes)", "type": "cell-based", "details": "250 µM PLG 24 hours in GM, then 7 days in DM without inhibitor; vs untreated controls", "description": "(§4) The DM was changed every day for 7 days. Cells were analyzed at 24 hours post-treatment (PT), at 3rd and 7th days of skeletal muscle differentiation.\nAfter differentiation for 7 days in DM, cells were washed with phosphate saline buffer (PBS) and fixed for 15 minutes in 4% (w/v) paraformaldehyde at room temperature. For permeabilization and blocking, cells were incubated for 1 hour in the presence of PBS 0.1% (v/v) Triton X-100 (TX-100, Merck) and 5% (w/v) FBS (Merck) at room temperature. […] After incubation, cells were washed three times in PBS and incubated for 1 hour at room temperature with an anti-mouse FITC-conjugated secondary antibody (Jackson ImmunoResearch), diluted 1:200. […] Myogenesis was assessed by measuring the myotube area and the number of myonuclei per myotube using a fluorescent microscope (Olympus TH4-200) equipped with an acquisition camera. To quantify both differentiation and fusion indexes, ten fields were chosen randomly and, for each field, a minimum of one hundred myosin-positive myotubes with more than two myonuclei were measured using the ImageJ v1.49o software. The area and the number of nuclei per myotube was the mean of ten measurements averaged from three different experiments.\nas §4"}, "[6]": {"test_system": "MyoD", "test": "Western blot of MyoD nuclear localization", "type": "cell-based, murine", "details": "250 µM PLG for 24 hours", "description": "as §1, §2\nas §1, with “For total proteins extraction, 7.5 x 10^4 cells were seeded and harvested at 7th days of skeletal muscle differentiation, as previously described. Cells were collected after enzymatic digestion with trypsin (Merck), lysed by sonication and centrifuged at 800 xg for 10 minutes. Supernatant was used to determine total protein content with the BCA Protein Assay Kit (Pierce), according to the manufacturer's instructions. For” for “For”, “(0.4 M” for “(0.4M”"}, "[7]": {"test_system": "Myogenin", "test": "qPCR of Myogenin during differentiation", "type": "cell-based, murine", "details": "day 3 of differentiation, 250 µM PLG pre-treated myoblasts", "description": "as §3\nas §3, with “ReliaPrepTM” for “ReliaPrep™”, “2-ΔΔCt.” for “2^-ΔΔCt.”"}, "[8]": {"test_system": "MHC", "test": "qPCR of MHC during differentiation", "type": "cell-based, murine", "details": "day 7 of differentiation, 250 µM PLG pre-treated myoblasts", "description": "as §3\nas §3, with “ReliaPrepTM” for “ReliaPrep™”, “2-ΔΔCt.” for “2^-ΔΔCt.”"}, "[9]": {"test_system": "C2C12 murine myoblasts", "test": "CellTox Cytotoxicity Assay", "details": "at EC50 concentration (250 µM), 24 hours"}, "[10]": {"test_system": "C2C12 murine myoblasts", "test": "RealTime-Glo MT Cell Viability Assay", "details": "at EC50 concentration (250 µM), 24 hours"}}, "data": [{"compound": "COC(=O)CCC(=O)NNC(=O)c1cc(N(C)C)ccn1", "note": "[PLG23]", "values": [{"measurement": "EC50", "setting": "[1]", "result": "undetectable"}]}, {"compound": "O=C(O)CCC(=O)NNC(=O)c1cc2ccccc2cn1", "note": "[PLG2]", "values": [{"measurement": "HIF-1α nuclear translocation, protein increase", "setting": "[2]", "result": 1.3, "unit": "fold"}, {"measurement": "enhancement of VEGF", "setting": "[3]", "result": 1.1, "unit": "fold"}, {"measurement": "increase of PHD2", "setting": "[4]", "result": "no significant changes"}, {"measurement": "fusion index", "setting": "[5]", "result": "no significant changes"}, {"measurement": "increase in the differentiation index", "setting": "[5]", "result": 1.15, "unit": "fold"}, {"measurement": "increase of the nuclear localization of MyoD", "setting": "[6]", "result": 1.2, "unit": "fold"}, {"measurement": "increase of Myogenin", "setting": "[7]", "result": 1.2, "unit": "fold"}, {"measurement": "enhancement of MHC", "setting": "[8]", "result": 1.3, "unit": "fold"}, {"measurement": "Cell toxicity", "setting": "[9]", "result": "not due to a toxic effect"}, {"measurement": "decrease in the proliferation rate", "setting": "[10]", "result": 20, "unit": "%"}, {"measurement": "EC50", "setting": "[1]", "result": 250, "unit": "µM"}]}, {"compound": "COC(=O)CCC(=O)NNC(=O)c1cc2ccccc2cn1", "note": "[PLG11]", "values": [{"measurement": "HIF-1α nuclear translocation, protein increase", "setting": "[2]", "result": 1.5, "unit": "fold"}, {"measurement": "enhancement of VEGF", "setting": "[3]", "result": 1.2, "unit": "fold"}, {"measurement": "increase of PHD2", "setting": "[4]", "result": 1.3, "unit": "fold"}, {"measurement": "fusion index", "setting": "[5]", "result": "no significant changes"}, {"measurement": "increase in the differentiation index", "setting": "[5]", "result": 1.2, "unit": "fold"}, {"measurement": "increase of the nuclear localization of MyoD", "setting": "[6]", "result": 1.3, "unit": "fold"}, {"measurement": "increase of Myogenin", "setting": "[7]", "result": 1.4, "unit": "fold"}, {"measurement": "enhancement of MHC", "setting": "[8]", "result": 1.4, "unit": "fold"}, {"measurement": "Cell toxicity", "setting": "[9]", "result": "not due to a toxic effect"}, {"measurement": "decrease in the proliferation rate", "setting": "[10]", "result": 17, "unit": "%"}, {"measurement": "EC50", "setting": "[1]", "result": 250, "unit": "µM"}]}, {"compound": "COC(=O)CCC(=O)NNC(=O)c1cc2c(cn1)[nH]c1ccccc12", "note": "[PLG8]", "values": [{"measurement": "HIF-1α nuclear translocation, protein increase", "setting": "[2]", "result": 1.5, "unit": "fold"}, {"measurement": "enhancement of VEGF", "setting": "[3]", "result": 1.6, "unit": "fold"}, {"measurement": "increase of PHD2", "setting": "[4]", "result": 1.8, "unit": "fold"}, {"measurement": "fusion index", "setting": "[5]", "result": "no significant changes"}, {"measurement": "increase in the differentiation index", "setting": "[5]", "result": 1.15, "unit": "fold"}, {"measurement": "increase of the nuclear localization of MyoD", "setting": "[6]", "result": 1.4, "unit": "fold"}, {"measurement": "increase of Myogenin", "setting": "[7]", "result": 1.4, "unit": "fold"}, {"measurement": "enhancement of MHC", "setting": "[8]", "result": 1.5, "unit": "fold"}, {"measurement": "Cell toxicity", "setting": "[9]", "result": "not due to a toxic effect"}, {"measurement": "decrease in the proliferation rate", "setting": "[10]", "result": 60, "unit": "%"}, {"measurement": "EC50", "setting": "[1]", "result": 250, "unit": "µM"}]}, {"compound": "CN(C)c1ccnc(C(=O)NNC(=O)CCC(=O)O)c1", "note": "[PLG19]", "values": [{"measurement": "EC50", "setting": "[1]", "result": "undetectable"}]}, {"compound": "O=C(O)CCC(=O)NNC(=O)c1cc2c(cn1)[nH]c1ccccc12", "note": "[PLG6]", "values": [{"measurement": "EC50", "setting": "[1]", "result": "undetectable"}]}]}
